What all share (assay): greenhouse herbicidal test, post-emergence treatment
Format in all cases: in vivo

One test relates to Digitaria insularis. The note with it: scale 0 to 100. The text has this: (§1) The culture containers used were plastic flowerpots containing loamy sand with approximately 3.0% of humus as the substrate. The seeds of the test plants were sown separately for each species.
(§2) For the pre-emergence treatment, the active ingredients, which had been suspended or emulsified in water, were applied directly after sowing by means of finely distributing nozzles. The containers were irrigated gently to promote germination and growth and subsequently covered with transparent plastic hoods until the test plants had rooted. This cover caused uniform germination of the test plants, unless this had been impaired by the active ingredients. For the post-emergence treatment, the test plants were first grown to a height of 3 to 15 cm, depending on the plant habit, and only then treated with the active ingredients which had been suspended or emulsified in water. For this purpose, the test plants were either sown directly and grown in the same containers, or they were first grown separately as seedlings and transplanted into the test containers a few days prior to treatment.
(§3) Depending on the species, the test plants were kept at 10-25° C. or 20-35° C., respectively. The test period extended over 2 to 3 weeks. During this time, the test plants were tended, and their response to the individual treatments was evaluated.
(§4) Evaluation was carried out using a scale from 0 to 100. 100 means no emergence of the test plants, or complete destruction of at least the aerial moieties, and 0 means no damage, or normal course of growth. A good herbicidal activity is given at values of at least 70 and a very good herbicidal activity is given at values of at least 85.

The next test relates to Setaria faberi. The note with it: scale 0 to 100.
Text: as §1, §2, §3, §4

A further test has as its system Erigeron canadensis. The note with it: application rate 4 g/ha, scale 0 to 100.
Text: as §1, §2, §3, §4

Molecules are shown by their SMILES.

As to `CCOC(=O)COc1ncccc1Oc1cc(-n2c(=O)cc(C(C)(F)F)n(C)c2=O)c(F)cc1Cl` [Example 1.1, Ethyl 2-[[3-[2-chloro-5-[4-(1,1-difluoroethyl)-3-methyl-2,6-dioxo-pyrimidin-1-yl]-4-fluoro-phenoxy]-2-pyridyl]oxy]acetate], the “damages, unwanted plants TRCIN” value was 95 with Digitaria insularis (application rate 2 g/ha) and 100 in the test on Digitaria insularis (application rate 4 g/ha). The “damages, unwanted plants SETFA” value with Setaria faberi (application rate 1 g/ha) amounted to 80; in the test on Setaria faberi (application rate 2 g/ha), 90; with Setaria faberi (application rate 4 g/ha), 95. For the same molecule, the “damages, unwanted plants ERICA” value with Erigeron canadensis is 100.

Consider `CCOC(=O)COc1ncccc1Oc1cc(-n2c(=O)cc(C(F)(F)F)n(C)c2=O)c(F)cc1Cl` [cmpd I-2-8], for which the “damages, unwanted plants TRCIN” value in the test with Digitaria insularis (application rate 2 g/ha) and in the test on Digitaria insularis (application rate 4 g/ha) was 90 in each case. The entries for the “damages, unwanted plants SETFA” value with Setaria faberi (application rate 1 g/ha), in the test with Setaria faberi (application rate 2 g/ha) and in the test with Setaria faberi (application rate 4 g/ha) were 70, 85 and 90, respectively. Also, the “damages, unwanted plants ERICA” value with Erigeron canadensis amounted to 65.

The values are drawn from patent US20240287028A1, “HERBICIDAL PHENYLURACILS” (BASF SE, priority 2021, published 2024).
